According to patent publication US20110263425A1, “HERBICIDAL COMPOSITION AND METHOD OF USE THEREOF” (SYNGENTA CROP PROTECTION, INC., priority 2007, published 2011):

Experiments:
Parameters in all cases: key to Synergy (actual significantly higher than expected): *indicates synergy
Details in all cases: for Weed control, Actual: tank mixture
[1] = test system: large crabgrass (Digitaria sanguinalis); assay: Glasshouse trial, control of large crabgrass, mesotrione and atrazine applied post-emergence; assay type: in vivo
Protocol: (§1) A glasshouse trial was carried out. Large crabgrass seeds were sown into standard glasshouse potting mix (1:1 v/v Promix:Vero sand soil) contained in 10 cm square plastic pots. Treatments were replicated three times. Mesotrione (in the form Callisto® 480SE) was applied post-emergence to large crabgrass (Digitaria sanguinalis) at either 12 g ai/ha or 24 g ai/ha with or without atrazine (in the form […]®. When used, atrazine was applied at a rate of 140 g ai/ha or 280 g ai/ha. The adjuvant system was X-77 at 0.1% v/v in deionised water. 200 litres of herbicide/adjuvant system was used per hectare. General weed control was evaluated at 7 and 14 days after treatment (DAT). It is noted that all herbicides were applied at reduced field rates because herbicide effects are magnified in a glasshouse environment. Rates were chosen to give a 50 to 70% level of control with herbicides applied alone as this allows for detection of any synergistic effect when tank mixtures are used. The results were evaluated using the Colby formula. The expected result for (A+B) is (A+B)-(A×B/100) where A and B are the 'observed' results for A and B on their own.

[2] = test system: white clover (Trifolium repens); assay: Glasshouse trial, control of white clover, mesotrione and atrazine applied post-emergence; assay type: in vivo
Protocol: [The source words this procedure for another organism and says it was used here with some conditions changed.] as §1, with “own. […] A glasshouse trial was carried out as described in Example 1, but the herbicidal composition was applied to white clover (Trifolium repens) instead of large crabgrass, and higher rates of mesotrione were used.” for “own.”

[3] = test system: large crabgrass; assay: Glasshouse trial, control of large crabgrass, mesotrione and atrazine applied pre-emergence; assay type: in vivo, Digitaria sanguinalis
Protocol: as §1, with “own. […] A glasshouse trial was carried out as described in Example 1, but the herbicidal composition was applied pre-emergence, and higher rates of atrazine were used.” for “own.”

[4] = atrazine 140 g ai/ha plus mesotrione at 12 g ai/ha
[5] = atrazine 140 g ai/ha plus mesotrione at 24 g ai/ha
[6] = atrazine 280 g ai/ha plus mesotrione at 12 g ai/ha
[7] = atrazine 280 g ai/ha plus mesotrione at 24 g ai/ha
[8] = atrazine 140 g ai/ha plus mesotrione at 50 g ai/ha
[9] = atrazine 140 g ai/ha plus mesotrione at 100 g ai/ha
[10] = atrazine 280 g ai/ha plus mesotrione at 50 g ai/ha
[11] = atrazine 280 g ai/ha plus mesotrione at 100 g ai/ha
[12] = atrazine 560 g ai/ha plus mesotrione at 12 g ai/ha
[13] = atrazine 560 g ai/ha plus mesotrione at 24 g ai/ha

## CCNc1nc(Cl)nc(NC(C)C)n1 [Atrazine, 6-chloro-N-ethyl-N-isopropyl-1,3,5-triazine-2,4-diamine]
[1]; [4]
  Synergy (actual significantly higher than expected): *
  Weed control, Expected (Colby formula): 37%
  Weed control, Actual: 48%
[1]; [5]
  Synergy (actual significantly higher than expected): *
  Weed control, Expected (Colby formula): 68%
  Weed control, Actual: 78%
[1]; [6]
  Synergy (actual significantly higher than expected): *
  Weed control, Expected (Colby formula): 37%
  Weed control, Actual: 62%
[1]; [7]
  Synergy (actual significantly higher than expected): *
  Weed control, Expected (Colby formula): 68%
  Weed control, Actual: 77%
[2]; [8]
  Weed control, Expected (Colby formula): 58%
  Weed control, Actual: 57%
[2]; [9]
  Synergy (actual significantly higher than expected): *
  Weed control, Expected (Colby formula): 68%
  Weed control, Actual: 80%
[2]; [10]
  Weed control, Expected (Colby formula): 74%
  Weed control, Actual: 73%
[2]; [11]
  Synergy (actual significantly higher than expected): *
  Weed control, Expected (Colby formula): 80%
  Weed control, Actual: 88%
[3]; [6]
  Synergy (actual significantly higher than expected): *
  Weed control, Expected (Colby formula): 68%
  Weed control, Actual: 75%
[3]; [7]
  Weed control, Expected (Colby formula): 97%
  Weed control, Actual: 87%
[3]; [12]
  Synergy (actual significantly higher than expected): *
  Weed control, Expected (Colby formula): 60%
  Weed control, Actual: 90%
[3]; [13]
  Weed control, Expected (Colby formula): 96%
  Weed control, Actual: 98%
